Test results reported in paper PMC9669019, “Molecular basis for integrin adhesion receptor binding to p21-activated kinase 4 (PAK4)” (Communications Biology, 2022).
Ends that are not written are not given here.

How the values were obtained:
GFP-PAK4-Δcat = assay: GST-integrin β5 fusion pull-down of GFP-PAK4-Δcat expressed in cells; format: binding, human; conditions: Figure 1C source data
Protocol: (§1) For pulldowns from cell lysates, human PAK4 constructs were generated in pEGFP (Takara Bio Inc.) by PCR amplification from a pLX304 PAK4 isoform 1 (Uniprot O96013-1) construct kindly provided by Michael Calderwood (Dana-Farber Cancer Institute). Mutations and deletions were introduced by QuikChange mutagenesis or PCR amplification. Chinese hamster ovary (CHO) cells were seeded on 10 cm tissue culture dishes and transiently transfected with GFP-tagged constructs using polyethylenimine (Polysciences). After 24 h, cells were harvested and lysed in buffer X (1 mM NaVO4, 50 mM NaF, 40 mM sodium pyrophosphate, 50 mM NaCl, 150 mM sucrose, 10 mM Pipes, pH 6.8) containing 0.5% Triton X-100, 0.2% deoxycholic acid, and complete EDTA-free protease inhibitor mixture (Roche, Indianapolis, IN, USA) for 15 min at 4 °C. After clarification by centrifugation, lysate was diluted in buffer X-T (buffer X with 0.05% Triton X-100) and incubated with His-tagged integrin tails coupled to Ni-NTA beads for 4 h with rocking at 4 °C. For experiments using purified PAK4cat, protein was incubated with His-tagged integrin tails coupled to Ni-NTA beads in buffer X-T for 2 h with rocking at 4 °C. Beads were then washed three times with buffer X-T, and bound proteins were fractionated by reducing SDS-PAGE and analyzed by immunoblotting with anti-GFP antibodies (600-101-215, Rockland). Immunoblots were imaged on an Odyssey IR imaging system (Li-Cor; Lincoln, NE, USA) and analyzed using Image Studio Lite (Li-Cor; Lincoln, NE, USA). For the quantification of binding from immunoblots, the fluorescence intensity of the band corresponding to bound material was quantified as a fraction of the fluorescence of the input material band for each condition. Loading of integrin tails was assessed by Coomassie Blue staining. Data were analyzed using GraphPad Prism.

GFP-PAK4-cat = assay: GST-integrin β5 fusion pull-down of GFP-PAK4-cat expressed in cells; format: binding, human; conditions: Figure 1C source data
Protocol: as §1

PAK4 = molecular target: T1, PAK4 (Homo sapiens, UniProt O96013); assay: In vitro phosphorylation of integrin β5 tail by PAK4; format: biochemical; conditions: in vitro kinase assay, Fig. 5a
T1 construct: catalytic domain of PAK4 (UniProt ID:O96013) was sub-cloned into a modified pET28a vector; 6xHis (TEV-cleavable) (N); made in house; host or cells: E. coli BL21-CodonPlus(DE3)RILP

PAK4-cat = assay: Pull-down of purified recombinant PAK4-cat by His-tagged integrin tails on Ni-NTA beads; format: binding, human
Protocol: Pull down assays were performed as previously described[45],[60]. Briefly, constructs encoding an N-terminal His-tag followed by a helical region, a 4-glycine spacer, and an integrin cytoplasmic tail sequence were produced in BL21 (DE3) bacteria. Following bacterial cell lysis, recombinant protein was bound to Ni-NTA beads, eluted with imidazole, dialyzed and further purified by reverse-phase high-performance liquid chromatography (HPLC). Purified protein was lyophilized for storage and was used to coat fresh Ni-NTA beads to generate an affinity matrix for pull-down assays.
as §1

PAK6 = assay: In vitro phosphorylation of integrin β5 tail by PAK6; format: biochemical; conditions: in vitro kinase assay, Fig. 5a
PAK4cat = assay: Radioactive kinase assay with MBP as substrate; format: biochemical, human; conditions: in vitro kinase assay, full-length tail 6-50 μM
Protocol: Impact of full-length cytosolic integrin β5 on kinase activity was assessed using a radioactive assay with myelin basic protein (MBP) as substrate. Assays were performed by addition of 0.1 µM of PAK4cat kinase, 2 µM of MBP, cytosolic full-length integrin β5 ^743–799 (50, 25, 12, and 6 μM), with 12 µM of cold ATP and 0.05 µCi of hot [γ33-P] ATP in Tris buffer (20 mM Tris-HCl (pH 8.0), 0.3 M NaCl, 1 mM TCEP, and 10 mM MgCl2) with a total volume of 25 µL. The reaction was conducted at 30 °C for 7–11 min then stopped by the addition of 5× sample buffer and analyzed by SDS-PAGE. Dried gels were analyzed by exposure to phosphor storage screen (GE Healthcare) followed by scanning using a Molecular Imager FX Pro Plus System (Bio-Rad) and quantified by optical densitometry Quantity One (Bio-Rad). Measurements were calculated from three independent experiments. Significant differences were calculated by Prism 7 (GraphPad Software) with ANOVA analysis. Impact of short integrin β5 peptide on kinase activity was assessed using a radioactive assay with a LIM kinase peptide (RKKRYTVVGN, LIMtide) as substrate. The concentration of PAK4 and LIMtide were kept constant at 0.2 and 50 µM, respectively. […] Duplicate measurements were calculated from three independent experiments. […]

T1 sequence (O96013 321-572 limits assumed): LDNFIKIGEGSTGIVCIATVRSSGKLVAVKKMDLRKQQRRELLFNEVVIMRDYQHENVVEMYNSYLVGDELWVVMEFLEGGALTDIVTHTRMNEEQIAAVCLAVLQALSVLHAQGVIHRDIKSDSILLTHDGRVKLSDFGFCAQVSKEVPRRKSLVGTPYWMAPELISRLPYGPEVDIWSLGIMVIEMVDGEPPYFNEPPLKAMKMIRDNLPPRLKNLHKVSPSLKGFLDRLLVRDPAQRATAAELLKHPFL

B5 746-758: GST-fusion truncation of integrin β5 tail ending at residue 758 (VTIHDRREFAKFQ; also: GST fusion, end not given here; UniProt P18084 746-758, looked up, fragment)
PAK4 Nterm bound (pull-down quantification) (GFP-PAK4-Δcat; replicate 3): 0
PAK4 Nterm bound (pull-down quantification) (GFP-PAK4-Δcat; replicate 4): 0.03887
PAK4 Nterm bound (pull-down quantification) (GFP-PAK4-Δcat; replicate 5): 0.08311
PAK4 Nterm bound (pull-down quantification) (GFP-PAK4-Δcat; replicate 6): 0
PAK4 Nterm bound (pull-down quantification) (GFP-PAK4-Δcat; replicate 7): 0
PAK4 Cat bound (pull-down quantification) (GFP-PAK4-cat; bound band as fraction of input, replicate column 1 of 7): 0.2198
PAK4 Cat bound (pull-down quantification) (GFP-PAK4-cat; replicate column 6 of 7): 0.1642
PAK4 Cat bound (pull-down quantification) (GFP-PAK4-cat; replicate column 7 of 7): 0.1513

integrin β5 cytoplasmic tail: Recombinant His-tagged integrin β5 cytoplasmic tail, residues 743–799 (KLLVTIHDRREFAKFQSERSRARYEMASNPLYRKPISTHTVDFTFNKFNKSYNGTVD; also: 6xHis tag)
Kinase activity of PAK4 towards the integrin β5 tail (phosphorylation, words) (PAK4): negligible
PAK4Cat bound to tail (pull-down quantification) (PAK4-cat; 5 nM PAK4Cat, replicate 2): 4.211
PAK4Cat bound to tail (pull-down quantification) (PAK4-cat; 50 nM PAK4Cat, replicate 1): 47.6856
PAK4Cat bound to tail (pull-down quantification) (PAK4-cat; 50 nM PAK4Cat, replicate 2): 66.5041
PAK4Cat bound to tail (pull-down quantification) (PAK4-cat; 100 nM PAK4Cat, replicate 1): 90.1913
PAK4Cat bound to tail (pull-down quantification) (PAK4-cat; 100 nM PAK4Cat, replicate 2): 166.368
PAK4Cat bound to tail (pull-down quantification) (PAK4-cat; 200 nM PAK4Cat, replicate 1): 112.727
PAK4Cat bound to tail (pull-down quantification) (PAK4-cat; 200 nM PAK4Cat, replicate 2): 69.6949
PAK4Cat bound to tail (pull-down quantification) (PAK4-cat; 500 nM PAK4Cat, replicate 1): 260.384
PAK4Cat bound to tail (pull-down quantification) (PAK4-cat; 500 nM PAK4Cat, replicate 2): 185.982
PAK4Cat bound to tail (pull-down quantification) (PAK4-cat; 750 nM PAK4Cat, replicate 2): 239.04
PAK4Cat bound to tail (pull-down quantification) (PAK4-cat; 1000 nM PAK4Cat, replicate 1): 443.221
PAK4Cat bound to tail (pull-down quantification) (PAK4-cat; 1000 nM PAK4Cat, replicate 2): 367.326
PAK4Cat bound to tail (pull-down quantification) (PAK4-cat; 2000 nM PAK4Cat, replicate 2): 619.089
PAK4Cat bound to tail (pull-down quantification) (PAK4-cat; 2000 nM PAK4Cat, replicate 3): 750
PAK4Cat bound to tail (pull-down quantification) (PAK4-cat; 3000 nM PAK4Cat, replicate 1): 966.407
PAK4Cat bound to tail (pull-down quantification) (PAK4-cat; 3000 nM PAK4Cat, replicate 2): 705.982
PAK4Cat bound to tail (pull-down quantification) (PAK4-cat; 4000 nM PAK4Cat, replicate 2): 871.714
PAK4Cat bound to tail (pull-down quantification) (PAK4-cat; 5000 nM PAK4Cat, replicate 3): 875
PAK4Cat bound to tail (pull-down quantification) (PAK4-cat; Figure 1D source data, 5 nM PAK4Cat, replicate 1): 9.128
Phosphorylation of integrin β5 by PAK6 (PAK6): does not display strong phosphorylation
Effect on PAK4 catalytic activity (PAK4cat): suppression of catalytic activity

B5 746-762: GST-fusion truncation of integrin β5 tail ending at residue 762 (VTIHDRREFAKFQSERS; also: GST fusion, end not given here; UniProt P18084 746-762, looked up, fragment)
PAK4 Nterm bound (pull-down quantification) (GFP-PAK4-Δcat; replicate 6): 0
PAK4 Nterm bound (pull-down quantification) (GFP-PAK4-Δcat; replicate 7): 0
PAK4 Cat bound (pull-down quantification) (GFP-PAK4-cat; replicate column 6 of 7): 0.1712
PAK4 Cat bound (pull-down quantification) (GFP-PAK4-cat; replicate column 7 of 7): 0.5556
